Test results published in patent US20120225093A1, “Abrogating HIV-1 Infection via Drug-Induced Reactivation of Apoptosis” (UNIVERSITY OF MEDICINE AND DENTISTRY OF NEW JERSEY, priority 2010, published 2012).

Key:
HIV p24 = assay: p24 expression from pNL4-3-LucE- molecular clone in 293T cells; format: cell-based, HIV-1; conditions: 293T cell extract; 12 hr post-transfection
Description: FIGS. 3A-D are a set of diagrams and photographs showing drug effects on luciferase expression from an HIV-1 molecular clone. A. Comparison of drug effects on luciferase expression from the pNL4-3-LucE- molecular clone in 293T cells. The molecular clone pNL4-3-LucE- and pCMV-Ren were transfected into 293T cells. Drugs were added where indicated at the following concentrations: P2 (30 μM), CPX (30 μM), DEF (250 μM), or DFOX (15 μM). Dual luciferase assays were conducted at 12 hr post-transfection. Firefly (FF) luciferase expression was normalized to Renilla luciferase (Ren) from pCMV-Ren (mean of 2 experiments in duplicate, ±SD). B. Expression in Jurkat cells was assayed essentially as in panel A. C. Firefly and Renilla luciferase RNA expression was analyzed in 293T cells treated as in panel A by RPA using 32P-[UTP] labeled antisense RNA probes corresponding to the C-termini of the FF and Ren luciferase mRNAs. D. Comparison of drug effects on p24 expression from the pNL4-3-LucE- molecular clone in 293T cells. Drugs were added where indicated to the same concentrations as in A. p24 levels were determined in cell extract at 12 hr post-transfection.
p24 core antigen in the supernatant was quantified by ELISA (Retrotek HIV-1 p24™; ZeptoMetrix Corp.; Buffalo, N.Y.). HIV-1 RNA copy number in the supernatant was determined with a PCR-based and FDA-approved assay (Amplicor HIV-1 Monitor™; Roche Diagnostics Corp.; Indianapolis, Ind.). IFN-γ and IL-10 in the supernatant were determined by cytometric bead array (Human Th1/Th2 Cytokine Kit II™; BD Biosciences Pharmingen, San Jose, Calif.).

[1] = tested on: bioavailable intracellular iron; assay: IRE-controlled luciferase reporter in 293T cells; format: cell-based, human; conditions: 12 hr
Description: 293T cells (10^5 cells/well of 12-well microplates) were seeded and transfected 20 hr later with a firefly luciferase (Luc)-expressing reporter plasmid and corresponding Renilla luciferase (Ren)-expressing reference plasmid using TransFectin™ (Bio-Rad, Hercules, Calif.). The bioavailable intracellular iron concentration was monitored using plasmids obtained from B. Galy and M. W. Hentze (EMBL, Heidelberg). Plasmid pcFIF-Luc contains the mouse ferritin H 5′-UTR with an iron response element (IRE) controlling Luc; pcFIRo-Ren is a similar construct expressing a mutated non-functional IRE fused to Ren. The activity of the HIV-1 promoter was monitored using the pNL4-3-Luc E molecular clone (Chen et al. (1994) J Virol 68: 654-660.), based on the recombinant infectious proviral clone that contains DNA from HIV isolates NY5 (5′ half) and IIIB (3′ half). This plasmid, obtained from D. Baltimore (Caltech, Pasadena), contains the Luc gene in place of 102 nucleotides from nef and 6 nucleotides from env. pCMV-Ren (Promega, Madison, Wis.) was used as reference for pNL4-3-Luc E. Compounds were added at the time of transfection. Cells were harvested 12 hr later, washed with phosphate-buffered saline, and lysed for the dual luciferase assay (Dual Luciferase™ Reporter Assay System; Promega, Madison, Wis.). Luc data were normalized to the Ren internal controls (Hogue et al. (2009) Retrovirology 6: 90.).
Both CPX and DEF are hydroxypyridinones with vicinally positioned oxygen atoms that mediate bidentate interaction with metal ions, in particular Fe^3+ (FIG. 11A). To evaluate the effect of drugs on the intracellular iron pool and on HIV-1 gene expression, transient expression assays in human 293T cells were exploited. Bioavailable intracellular iron was measured using a construct in which an iron-responsive element (IRE) controls luciferase expression, and HIV-specific transcription was assayed in parallel using an HIV-1 molecular clone that expresses luciferase reporter under the direction of the retroviral promoter. CPX and DEF were compared with the medicinal chelator deferoxamine (DFOX) and with the CPX fragment Agent P2, which consists of the metal-binding 1,2-HOPO domain of CPX but lacks the cyclohexyl moiety (FIG. 11A).

[2] = in vivo, cited from earlier work
eIF5A:DOHH complex = target: T1, eIF5A:DOHH complex (Homo sapiens, UniProt Q9BU89); assay: Co-immunoprecipitation of eIF5A with DOHH from 293T cell extracts; format: cell-based; conditions: CPX 30 μM, P2 30 μM, DEF 250 μM, DFOX 10 μM, GC7 10 μM; 24 hr
T1 construct: Endogenous DOHH co-immunoprecipitated with FLAG-eIF5A; expressed in transfected cells; host or cells: 293T cells (DOHH endogenous, FLAG-eIF5A transfected)
T1 sequence (Q9BU89 1-302): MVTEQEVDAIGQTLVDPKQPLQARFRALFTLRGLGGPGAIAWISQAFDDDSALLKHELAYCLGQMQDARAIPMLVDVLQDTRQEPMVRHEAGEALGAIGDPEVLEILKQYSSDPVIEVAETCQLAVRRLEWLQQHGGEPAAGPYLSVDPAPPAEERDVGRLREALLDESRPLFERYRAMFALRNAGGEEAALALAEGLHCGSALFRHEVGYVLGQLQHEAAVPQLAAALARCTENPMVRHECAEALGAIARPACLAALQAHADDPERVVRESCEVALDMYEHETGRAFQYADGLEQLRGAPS
Description: (§1) Immunoprecipitation and immunoblotting experiments were carried out as described previously in Hoque et al. Mol Cell Biol 2003, 23:1688-1702.
(§2) eIF5A forms tight complexes with its modifying enzymes. Unmodified eIF5A (lysine-50) immunoprecipitates with DHS and deoxyhypusyl-eIF5A interacts with DOHH in vitro. It was discovered that the deoxyhypusyl-eIF5A:DOHH complex formed in vivo can be detected by immunoprecipitation from cell extracts. Taking advantage of this finding, the effects of the drugs on the enzyme-substrate interaction were tested. FLAG-eIF5A was expressed in 293T cells and complexes that immunoprecipitated with anti-FLAG antibody were immunoblotted and probed with antibodies against DOHH. […] As a further control, the DHS inhibitor GC7 was included in this assay. […] As expected, none of the compounds affected the immunoprecipitation of FLAG-eIF5A (FIG. 2D, middle panel) or the expression of endogenous eIF5A (FIG. 2D, bottom panel). Reciprocally, the interaction between endogenous eIF5A and tagged DOHH was inhibited by CPX and DEF (FIG. 2E, right). Similarly, the interaction of endogenous eIF5A with tagged DHS was inhibited by GC7 (FIG. 2E, left) but resistant to CPX and DEF. It is concluded that CPX and DEF, but not P2 or DFOX, target DOHH and inhibit its interaction with its substrate, deoxyhypusylelF5A.

eIF5A:DHS complex = target: T2, eIF5A:DHS complex (Homo sapiens, UniProt P49366); assay: Co-immunoprecipitation of eIF5A with DHS from 293T cell extracts; format: cell-based; conditions: 293T transfected with FLAG-DHS
T2 construct: expressed in transfected cells; host or cells: 293T cells (FLAG-DHS transfected, eIF5A endogenous)
T2 sequence (P49366 1-369): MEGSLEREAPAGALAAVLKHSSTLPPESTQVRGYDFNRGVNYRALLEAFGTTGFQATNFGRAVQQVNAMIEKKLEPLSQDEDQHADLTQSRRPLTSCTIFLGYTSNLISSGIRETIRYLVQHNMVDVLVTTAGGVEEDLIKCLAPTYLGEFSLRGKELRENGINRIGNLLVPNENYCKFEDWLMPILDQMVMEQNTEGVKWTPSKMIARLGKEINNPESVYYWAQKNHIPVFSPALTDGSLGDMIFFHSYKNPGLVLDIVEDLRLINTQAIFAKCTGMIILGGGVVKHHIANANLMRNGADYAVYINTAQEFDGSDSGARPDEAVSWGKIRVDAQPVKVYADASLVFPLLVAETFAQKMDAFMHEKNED
Description: as §1, §2

association of endogenous DOHH with FLAG-eIF5A (eIF5A:DOHH complex) | interaction of endogenous eIF5A with tagged DHS (eIF5A:DHS complex) | Compound | inhibition of HIV p24 expression from the molecular clone (HIV p24) | reduction of intracellular iron (IRE-dependent luciferase) [1] | peak concentration achievable in patients ([2]; human) | maximum achievable in human plasma [2]
– | – | CC(=O)N(O)CCCCCNC(=O)CCC(=O)N(O)CCCCCNC(=O)CCC(=O)N(O)CCCCCN [DFOX, deferoxamine] | no effect | 80% | 15 µM | 20 µM
No DOHH was associated with FLAG-eIF5A | inhibited | NCCCCCCCN=C(N)N [GC7] | – | – | – | –
